This note sets out measurements from patent US12123009B2, “Methods and compositions for PPO herbicide tolerance in plants” (Monsanto Technology LLC, priority 2015, dated 2024).

For data set [1], the system named is soybean (A3555), non-transgenic or expressing H_N10 (SEQ ID NO:4). Kind of data set: R0 soybean sprayed with flumioxazin. Format: in vivo. The conditions noted are these: 210 g/ha, V3, 8 days. As for the experimental part:
In soybean, excised embryos (A3555) were transformed with the transformation constructs 1 and 11 using A. tumefaciens and standard methods known in the art. […] Regenerated R0 transgenic plantlets were grown in the greenhouse. […] The herbicide was sprayed at the V3 developmental stage with three fully developed trifoliate leaves and injury ratings were assessed 8 days after treatment. The percentage of plants that were deemed highly tolerant (15% or less injury) was noted.

The subject of data set [2] is C=Cc1c2[nH]c(c1C)Cc1[nH]c(c(CCC(=O)O)c1C)Cc1[nH]c(c(C)c1CCC(=O)O)Cc1[nH]c(c(C)c1C=C)C2. Kind of data set: purified protein, by the assay type. The note with it: other: apparent Km for protoporphyrinogen, pH 7.4, 37° C.
Data set [3] concerns Waterhemp (Amaranthus tuberculata) protoporphyrinogen oxidase (PPO), wild type. Kind of data set: PPO enzyme assay (plastid extract). The conditions noted are these: apparent Km for protoporphyrinogen; pH 7.4, 30° C. The class given is biochemical.
The subject of data set [4] is Soybean (Glycine max) protoporphyrinogen oxidase (PPO), wild type. Kind of data set: PPO enzyme assay (plastid extract). Format: biochemical. The note with it: apparent Km for protoporphyrinogen; pH 7.4, 30° C.
The test system of data set [5] is Maize (Zea mays) protoporphyrinogen oxidase (PPO), wild type. Kind of data set: PPO enzyme assay (plastid extract). The class given is biochemical. The conditions noted are these: apparent Km for protoporphyrinogen; pH 7.4, 30° C.
For data set [6], the system named is H_N60 (SEQ ID NO: 3), microbial HemG protoporphyrinogen oxidase. Kind of data set: PPO enzyme assay (bacterial extract). The conditions noted are these: apparent Km for protoporphyrinogen; pH 7.4, 37° C.
The subject of data set [7] is H_N110 (SEQ ID NO: 10), microbial HemG protoporphyrinogen oxidase. Kind of data set: PPO enzyme assay (bacterial extract). The conditions noted are these: apparent Km for protoporphyrinogen; pH 7.4, 37° C.
The mark [8] stands for this setting: H_N10 (SEQ ID NO:4), construct 11.

For orientation: Km means the concentration of substrate that gives half-maximal velocity.

With `C#CCN1C(=O)COc2cc(F)c(N3C(=O)C4=C(CCCC4)C3=O)cc21` [flumioxazin], in data set [1] (setting [8]), the average injury rating was 22% and the “highly tolerant plants (15% or less injury)” value was 9%. For the same compound, in data set [1] (non-transgenic), the average injury rating worked out at 30% and the “highly tolerant plants (15% or less injury)” value is recorded as “no highly tolerant plants”.

Consider “H_N50 (SEQ ID NO: 7), microbial HemG protoporphyrinogen oxidase (Shimwellia blattae DSM 4481 = NBRC 105725)”, for which, in data set [2], the Km stood at 1.0 µM.

On to “H_N10 (SEQ ID NO: 4), E. coli wild-type HemG protoporphyrinogen oxidase (Escherichia coli CFT073)”, for which, in data set [2], the Km came out at 0.7 µM.

For the compound “H_N30 (SEQ ID NO: 5), microbial HemG protoporphyrinogen oxidase (Winslowiella toletana)”, the Km in data set [2] came to 1.0 µM.

As to “H_N20 (SEQ ID NO: 2), microbial HemG protoporphyrinogen oxidase (Pantoea ananatis LMG 5342)”, the Km in data set [2] is 0.8 µM.

Consider `C=Cc1c2[nH]c(c1C)Cc1[nH]c(c(CCC(=O)O)c1C)Cc1[nH]c(c(C)c1CCC(=O)O)Cc1[nH]c(c(C)c1C=C)C2` [protoporphyrinogen, protoporphyrinogen IX], for which the Km in data set [3] came out at 0.7 µM; in data set [4], 1.8 µM; in data set [5] it was 2 µM; in data set [6], 1.1 µM; in data set [7] it was 0.3 µM.
